# Data from US20010000177A1, “Novel class of thiomorpholino substituted thiazoles” (priority 1999, published 2001).
# Marks after values point to notes of the source that are not given here.
# Legend:
# Assay type in all cases: cell-based
# [1] = test system: Candida and Cryptococcus strains (organism not given); test: Broth microdilution antifungal activity, Table II third MIC/MCC column pair; details: for MIC = Minimum inhibitory concentration (50% Inhibition): 48 hrs, 35° C., YNB broth pH 7.0; for MCC = Minimum cytolytic concentration: subculture on SDA plate
# Method: (§1) Organisms: Three strains of Candida (Candida parpsilosis, Candida tropicalis, Candida albicans-ATCC 36082) as well as Cryptococcus neoformans were used for the initial testing. Active compounds were then tested against fluconazole resistant Candida albicans, Candida krusei, Torulopsis glabrata, and Cryptococcus neoformans along with Sporothrix shenkii and Aspergillus flavus in the secondary round of testing. All clinical strains used in this study were blood culture isolates from the Clinical Microbiology Laboratory of Harbor-UCLA Medical Center, Torrance, Calif. The organisms were maintained on Sabourahd Dextrose Agar slants at 4° C. For experimentation, singlet suspensions of each organism were prepared by growing the yeast overnight at 27° C. on a rotating drum in yeast-nitrogen base broth (YNB) with amino acids (Difco, Detroit, Mich.), pH 7.0 with 0.05M morpholinepropanesulfonic acid (MOPS). The suspension was then centrifuged and washed twice with 0.85% NaCl. This was followed by sonication of the washed cell suspension for 4s (Branson Sonifier, model 350, Danbury, Conn.). The singlet blastospores were counted in a hemocytometer and adjusted to the desired concentration in 0.85% NaCl.
# (§2) Antifungal Activity: The antifungal activity of the compounds and Fluconazole against the Candida and Cryptococcus strains were determined using a modification of a broth microdilution technique. Test compounds were diluted in DMSO to a 1.0 mg/ml ratio then diluted to 64 μg/ml in YNB broth, pH 7.0 with MOPS (Fluconazole was used as the control). This was to provide a working solution of each compound. Using a 96-well plate, wells 1 and 3 through 12 were prepared with YNB broth, […] dilutions of the compound solution were made in wells 2 through 11 (concentration ranges were 64 to 0.125 μg/ml). Well one served as a sterility control and blank for the spectrophotometric assays. Well twelve served as a growth control. The microtiter plates were inoculated with 10 ul in each of well 2 through 11 (final inoculum size was 10^4 organisms/ml). Inoculated plates were incubated for 48 hrs., at 35° C. The MIC values were determined spectrophotometrically by measuring the absorbance at 420 nm (Automatic Microplate Reader, DuPont Instruments, Wilmington, Del.) after agitation of the plates for 2 min with a vortex-mixer (Vorte-Genie 2 Mixer, Scientific Industries, Inc., Bolemia, N.Y.). […] With the turbidity assay this was defined as the lowest drug concentration at which turbidity in the well was <50% of the control (IC50) Minimal Cytolytic Concentrations (MCC) were determined by subculturing all wells from the 96-well plate onto a Sabourahd Dextrose Agar (SDA) plate and incubated for 1 to 2 days at 35° C. and the viability was checked.
# [2] = test system: Candida and Cryptococcus strains (organism not given); test: Broth microdilution antifungal activity, Table II second MIC/MCC column pair; details: for MIC = Minimum inhibitory concentration (50% Inhibition) / MCC = Minimum cytolytic concentration: second column pair of Table II; for MIC = Minimum inhibitory concentration (50% Inhibition): YNB broth pH 7.0; for MCC = Minimum cytolytic concentration: subculture on SDA plate
# Method: as §1, §2
# [3] = test system: Candida and Cryptococcus strains (organism not given); test: Broth microdilution antifungal activity, Table II fourth MIC/MCC column pair; details: for MIC = Minimum inhibitory concentration (50% Inhibition) / MCC = Minimum cytolytic concentration: fourth column pair of Table II; for MIC = Minimum inhibitory concentration (50% Inhibition): YNB broth pH 7.0; for MCC = Minimum cytolytic concentration: subculture on SDA plate
# Method: as §1, with “Active compounds were then tested against fluconazole resistant Candida albicans, Candida krusei, Torulopsis glabrata, and Cryptococcus neoformans along with Sporothrix shenkii and Aspergillus flavus in the secondary round of testing.” left out
# as §2
# [4] = test system: Candida and Cryptococcus strains (organism not given); test: Broth microdilution antifungal activity, Table II first MIC/MCC column pair; details: for MIC = Minimum inhibitory concentration (50% Inhibition) / MCC = Minimum cytolytic concentration: first column pair of Table II; for MIC = Minimum inhibitory concentration (50% Inhibition): YNB broth pH 7.0; for MCC = Minimum cytolytic concentration: subculture on SDA plate
# Method: as §1, with “Active compounds were then tested against fluconazole resistant Candida albicans, Candida krusei, Torulopsis glabrata, and Cryptococcus neoformans along with Sporothrix shenkii and Aspergillus flavus in the secondary round of testing.” left out
# as §2
Compound,MIC = Minimum inhibitory concentration (50% Inhibition) [1],MCC = Minimum cytolytic concentration [1],"MIC = Minimum inhibitory concentration (50% Inhibition) ([2]; 48 hrs, 35° C.)",MCC = Minimum cytolytic concentration [2],"MIC = Minimum inhibitory concentration (50% Inhibition) ([3]; 48 hrs, 35° C.)",MCC = Minimum cytolytic concentration [3],"MIC = Minimum inhibitory concentration (50% Inhibition) ([4]; 48 hrs, 35° C.)",MCC = Minimum cytolytic concentration [4],"MIC ([2]; Candida, 48 h, pH 7, second column pair of Table II, 48 hrs, 35° C., YNB broth pH 7.0, read-out: MIC = Minimum inhibitory concentration (50% Inhibition))","MIC ([3]; Candida, 48 h, pH 7, fourth column pair of Table II, 48 hrs, 35° C., YNB broth pH 7.0, read-out: MIC = Minimum inhibitory concentration (50% Inhibition))","MIC ([4]; Candida, 48 h, pH 7, first column pair of Table II, 48 hrs, 35° C., YNB broth pH 7.0, read-out: MIC = Minimum inhibitory concentration (50% Inhibition))"
"C=CCN(C)Cc1ccc(-c2csc(-c3ccc([N+](=O)[O-])cc3)n2)cc1 [Example 1h, 2-(4′-nitrophenyl)-4-[4″-(N-methyl-N-allylaminomethyl)phenyl]thiazole]",0.125 µg/mL,0.5 µg/mL,0.25 µg/mL,1 µg/mL,0.5 µg/mL,2 µg/mL,0.5^c μg/ml,2 µg/mL,–,–,–
"COc1ccc(-c2nc(-c3ccc(CN(C)C)cc3)cs2)cc1[N+](=O)[O-] [Example 6l, 2-(4′-methoxy-3′-nitrophenyl)-4-[4″-(dimethylaminomethyl)phenyl]thiazole]",0.25 µg/mL,1 µg/mL,0.25 µg/mL,0.5 µg/mL,0.25 µg/mL,0.5 µg/mL,0.5 µg/mL,1 µg/mL,–,–,–
"CN(CCO)Cc1ccc(-c2csc(-c3ccc(Cl)cc3)n2)cc1 [Example 1ee, 2-(4′-chlorophenyl)-4-[4″-(N-methyl-N-(2-hydroxyethyl)aminomethyl)-phenyl]thiazole]",4 µg/mL,8 µg/mL,2 µg/mL,16 µg/mL,2 µg/mL,16 µg/mL,4 µg/mL,16 µg/mL,–,–,–
"CN(C)CCN(C)Cc1ccc(-c2csc(-c3ccc(Cl)cc3)n2)cc1 [Example 1u, 2-(4′-chlorophenyl)-4-[4″-(N-methyl-N-(2-dimethylaminoethyl)aminomethyl)-phenyl]thiazole]",4 µg/mL,4 µg/mL,4 µg/mL,4 µg/mL,4 µg/mL,4 µg/mL,8 µg/mL,8 µg/mL,–,–,–
"CCCN(C)Cc1ccc(-c2csc(-c3ccc(C#N)cc3)n2)cc1 [Example 6e, 2-(4′-cyanophenyl)-4-[4″-(N-methyl-N-propylaminomethyl)phenyl]-thiazole]",2 µg/mL,16 µg/mL,2 µg/mL,4 µg/mL,0.5 µg/mL,1 µg/mL,4 µg/mL,4 µg/mL,–,–,–
"OC(Cn1cncn1)(Cn1cncn1)c1ccc(F)cc1F [Fluconazole, reference compound]",–,>64 µg/mL,1.0 µg/mL,>64 µg/mL,0.5 µg/mL,>64 µg/mL,0.5 µg/mL,>64 µg/mL,0.5 µg/mL,1 µg/mL,0.25 µg/mL
"C=CCN(C)Cc1ccc(-c2csc(-c3ccc(F)cc3)n2)cc1 [Example 1, 2-(4′-fluorophenyl)-4-[4″-(N-methyl-N-allylaminomethyl)phenyl]thiazole]",4 µg/mL,16 µg/mL,4 µg/mL,16 µg/mL,4 µg/mL,16 µg/mL,4^c μg/ml,16 µg/mL,–,–,–
